For one data set, the target named is SARS-CoV-2 M^pro (Severe acute respiratory syndrome coronavirus 2, UniProt P0DTD1). It is filed as biochemical.
For data set [1] the following is noted: statement in Discussion, no test described, ref not given; cited from earlier work.

For the compound maltopentaose, at SARS-CoV-2 M^pro, the “Inhibition against M^pro (in words)” value was “none of them showed potent inhibition”.

Regarding `CC(C)=CC[C@@H](O)C1=CC(=O)c2c(O)ccc(O)c2C1=O` [Shikonin], in data set [1], the “Cytotoxicity (in words)” value is “strong cytotoxicity”. With `CC(=O)O[C@H]1[C@H](OCCc2ccc(O)c(O)c2)O[C@H](CO[C@@H]2O[C@H](CO)[C@@H](O)[C@H](O)[C@H]2O)[C@@H](OC(=O)/C=C/c2ccc(O)c(O)c2)[C@@H]1OC[C@@H]1O[C@@H](C)[C@H](O)[C@@H](O)[C@H]1O` [tubuloside A], on SARS-CoV-2 M^pro, the “Inhibition against M^pro (in words)” value is on record as “none of them showed potent inhibition”.

The record behind these values is publication PMC8754229 (Journal of Virology, 2022).
